Measured values taken from article PMC11270923 (BMC Chemistry, 2024).

Assay: Shake-flask solubility of acetaminophen in aqueous protic ionic liquid solutions (UV-vis at 243 nm)
Type: physicochemical
Description: The experimental solubility results were determined using a variety of techniques, including the shake-flask method. Aqueous binary mixtures based on PILs have been made utilizing an analytical balance with a 10^–4 g precision for determining the solubility results. Glass vials with a specific amount of water + PILs were filled with the extra acetaminophen. Following that, the samples were combined for 3 h and left for three days in a water bath thermostat (ED, Julabo Co., Germany) with temperature control and an uncertainty of 0.01 K. To separate the liquid and solid phases, a Hettich D-7200 centrifuge was employed (with 4000 RPM at room temperature at 10 min). An ethanol + water solution was applied to dilute the liquid phase after the saturated solutions were filtered through a […] PTFE filter. Subsequently, the drug concentration in the solutions was ascertained using a calibration curve and a UV–vis spectrometer at 243 nm.

solubility 10^5x1^exp (water+[DEA]La w3=0.0000 298.15 K 866 hPa): 1.839 mole fraction x10^5
solubility 10^5x1^exp (water+[DEA]La w3=0.0000 303.15 K 866 hPa): 2.239 mole fraction x10^5
solubility 10^5x1^exp (water+[DEA]La w3=0.0000 308.15 K 866 hPa): 2.545 mole fraction x10^5
solubility 10^5x1^exp (water+[DEA]La w3=0.0000 313.15 K 866 hPa): 3.009 mole fraction x10^5
solubility 10^5x1^exp (water+[DEA]La w3=0.0200 298.15 K 866 hPa): 2.492 mole fraction x10^5
solubility 10^5x1^exp (water+[DEA]La w3=0.0200 303.15 K 866 hPa): 3.159 mole fraction x10^5
solubility 10^5x1^exp (water+[DEA]La w3=0.0200 308.15 K 866 hPa): 3.555 mole fraction x10^5
solubility 10^5x1^exp (water+[DEA]La w3=0.0200 313.15 K 866 hPa): 3.722 mole fraction x10^5
solubility 10^5x1^exp (water+[DEA]La w3=0.0500 298.15 K 866 hPa): 3.181 mole fraction x10^5
solubility 10^5x1^exp (water+[DEA]La w3=0.0500 303.15 K 866 hPa): 3.576 mole fraction x10^5
solubility 10^5x1^exp (water+[DEA]La w3=0.0500 308.15 K 866 hPa): 3.917 mole fraction x10^5
solubility 10^5x1^exp (water+[DEA]La w3=0.0500 313.15 K 866 hPa): 4.227 mole fraction x10^5
solubility 10^5x1^exp (water+[DEA]La w3=0.0700 298.15 K 866 hPa): 3.452 mole fraction x10^5
solubility 10^5x1^exp (water+[DEA]La w3=0.0700 303.15 K 866 hPa): 3.977 mole fraction x10^5
solubility 10^5x1^exp (water+[DEA]La w3=0.0700 308.15 K 866 hPa): 4.167 mole fraction x10^5
solubility 10^5x1^exp (water+[DEA]La w3=0.0700 313.15 K 866 hPa): 4.514 mole fraction x10^5
solubility 10^5x1^exp (water+[DEA]La w3=0.1000 298.15 K 866 hPa): 3.849 mole fraction x10^5
solubility 10^5x1^exp (water+[DEA]La w3=0.1000 303.15 K 866 hPa): 4.220 mole fraction x10^5
solubility 10^5x1^exp (water+[DEA]La w3=0.1000 308.15 K 866 hPa): 4.793 mole fraction x10^5
solubility 10^5x1^exp (water+[DEA]La w3=0.1000 313.15 K 866 hPa): 5.266 mole fraction x10^5
solubility 10^5x1^exp (water+[DEA]La w3=0.1500 298.15 K 866 hPa): 4.290 mole fraction x10^5
solubility 10^5x1^exp (water+[DEA]La w3=0.1500 303.15 K 866 hPa): 4.611 mole fraction x10^5
solubility 10^5x1^exp (water+[DEA]La w3=0.1500 308.15 K 866 hPa): 5.038 mole fraction x10^5
solubility 10^5x1^exp (water+[DEA]La w3=0.1500 313.15 K 866 hPa): 5.633 mole fraction x10^5
solubility 10^5x1^exp (water+[DEA]La w3=0.2000 298.15 K 866 hPa): 4.669 mole fraction x10^5
solubility 10^5x1^exp (water+[DEA]La w3=0.2000 303.15 K 866 hPa): 5.223 mole fraction x10^5
solubility 10^5x1^exp (water+[DEA]La w3=0.2000 308.15 K 866 hPa): 5.710 mole fraction x10^5
solubility 10^5x1^exp (water+[DEA]La w3=0.2000 313.15 K 866 hPa): 6.188 mole fraction x10^5
solubility 10^5x1^exp (water+[MEA]La w3=0.0000 298.15 K 866 hPa): 1.839 mole fraction x10^5
solubility 10^5x1^exp (water+[MEA]La w3=0.0000 303.15 K 866 hPa): 2.239 mole fraction x10^5
solubility 10^5x1^exp (water+[MEA]La w3=0.0000 308.15 K 866 hPa): 2.545 mole fraction x10^5
solubility 10^5x1^exp (water+[MEA]La w3=0.0000 313.15 K 866 hPa): 3.009 mole fraction x10^5
solubility 10^5x1^exp (water+[MEA]La w3=0.0200 298.15 K 866 hPa): 2.750 mole fraction x10^5
solubility 10^5x1^exp (water+[MEA]La w3=0.0200 303.15 K 866 hPa): 3.417 mole fraction x10^5
solubility 10^5x1^exp (water+[MEA]La w3=0.0200 308.15 K 866 hPa): 3.802 mole fraction x10^5
solubility 10^5x1^exp (water+[MEA]La w3=0.0200 313.15 K 866 hPa): 4.007 mole fraction x10^5
solubility 10^5x1^exp (water+[MEA]La w3=0.0500 298.15 K 866 hPa): 3.256 mole fraction x10^5
solubility 10^5x1^exp (water+[MEA]La w3=0.0500 303.15 K 866 hPa): 3.861 mole fraction x10^5
solubility 10^5x1^exp (water+[MEA]La w3=0.0500 308.15 K 866 hPa): 4.055 mole fraction x10^5
solubility 10^5x1^exp (water+[MEA]La w3=0.0500 313.15 K 866 hPa): 4.320 mole fraction x10^5
solubility 10^5x1^exp (water+[MEA]La w3=0.0700 298.15 K 866 hPa): 3.884 mole fraction x10^5
solubility 10^5x1^exp (water+[MEA]La w3=0.0700 303.15 K 866 hPa): 4.588 mole fraction x10^5
solubility 10^5x1^exp (water+[MEA]La w3=0.0700 308.15 K 866 hPa): 4.675 mole fraction x10^5
solubility 10^5x1^exp (water+[MEA]La w3=0.0700 313.15 K 866 hPa): 5.025 mole fraction x10^5
solubility 10^5x1^exp (water+[MEA]La w3=0.1000 298.15 K 866 hPa): 4.380 mole fraction x10^5
solubility 10^5x1^exp (water+[MEA]La w3=0.1000 303.15 K 866 hPa): 4.807 mole fraction x10^5
solubility 10^5x1^exp (water+[MEA]La w3=0.1000 308.15 K 866 hPa): 5.407 mole fraction x10^5
solubility 10^5x1^exp (water+[MEA]La w3=0.1000 313.15 K 866 hPa): 5.600 mole fraction x10^5
solubility 10^5x1^exp (water+[MEA]La w3=0.1500 298.15 K 866 hPa): 4.962 mole fraction x10^5
solubility 10^5x1^exp (water+[MEA]La w3=0.1500 303.15 K 866 hPa): 5.658 mole fraction x10^5
solubility 10^5x1^exp (water+[MEA]La w3=0.1500 308.15 K 866 hPa): 6.128 mole fraction x10^5
solubility 10^5x1^exp (water+[MEA]La w3=0.1500 313.15 K 866 hPa): 6.665 mole fraction x10^5
solubility 10^5x1^exp (water+[MEA]La w3=0.2000 298.15 K 866 hPa): 5.589 mole fraction x10^5
solubility 10^5x1^exp (water+[MEA]La w3=0.2000 303.15 K 866 hPa): 6.123 mole fraction x10^5
solubility 10^5x1^exp (water+[MEA]La w3=0.2000 308.15 K 866 hPa): 6.695 mole fraction x10^5
solubility 10^5x1^exp (water+[MEA]La w3=0.2000 313.15 K 866 hPa): 7.337 mole fraction x10^5
solubility 10^5x1^exp (water+[TEA]La w3=0.0000 298.15 K 866 hPa): 1.839 mole fraction x10^5
solubility 10^5x1^exp (water+[TEA]La w3=0.0000 303.15 K 866 hPa): 2.239 mole fraction x10^5
solubility 10^5x1^exp (water+[TEA]La w3=0.0000 308.15 K 866 hPa): 2.545 mole fraction x10^5
solubility 10^5x1^exp (water+[TEA]La w3=0.0000 313.15 K 866 hPa): 3.009 mole fraction x10^5
solubility 10^5x1^exp (water+[TEA]La w3=0.0200 298.15 K 866 hPa): 2.161 mole fraction x10^5
solubility 10^5x1^exp (water+[TEA]La w3=0.0200 303.15 K 866 hPa): 2.632 mole fraction x10^5
solubility 10^5x1^exp (water+[TEA]La w3=0.0200 308.15 K 866 hPa): 2.940 mole fraction x10^5
solubility 10^5x1^exp (water+[TEA]La w3=0.0200 313.15 K 866 hPa): 3.334 mole fraction x10^5
solubility 10^5x1^exp (water+[TEA]La w3=0.0500 298.15 K 866 hPa): 2.597 mole fraction x10^5
solubility 10^5x1^exp (water+[TEA]La w3=0.0500 303.15 K 866 hPa): 2.944 mole fraction x10^5
solubility 10^5x1^exp (water+[TEA]La w3=0.0500 308.15 K 866 hPa): 3.210 mole fraction x10^5
solubility 10^5x1^exp (water+[TEA]La w3=0.0500 313.15 K 866 hPa): 3.521 mole fraction x10^5
solubility 10^5x1^exp (water+[TEA]La w3=0.0700 298.15 K 866 hPa): 2.908 mole fraction x10^5
solubility 10^5x1^exp (water+[TEA]La w3=0.0700 303.15 K 866 hPa): 3.461 mole fraction x10^5
solubility 10^5x1^exp (water+[TEA]La w3=0.0700 308.15 K 866 hPa): 3.584 mole fraction x10^5
solubility 10^5x1^exp (water+[TEA]La w3=0.0700 313.15 K 866 hPa): 3.929 mole fraction x10^5
solubility 10^5x1^exp (water+[TEA]La w3=0.1000 298.15 K 866 hPa): 3.094 mole fraction x10^5
solubility 10^5x1^exp (water+[TEA]La w3=0.1000 303.15 K 866 hPa): 3.834 mole fraction x10^5
solubility 10^5x1^exp (water+[TEA]La w3=0.1000 308.15 K 866 hPa): 4.208 mole fraction x10^5
solubility 10^5x1^exp (water+[TEA]La w3=0.1000 313.15 K 866 hPa): 4.349 mole fraction x10^5
solubility 10^5x1^exp (water+[TEA]La w3=0.1500 298.15 K 866 hPa): 3.958 mole fraction x10^5
solubility 10^5x1^exp (water+[TEA]La w3=0.1500 303.15 K 866 hPa): 4.151 mole fraction x10^5
solubility 10^5x1^exp (water+[TEA]La w3=0.1500 308.15 K 866 hPa): 4.940 mole fraction x10^5
solubility 10^5x1^exp (water+[TEA]La w3=0.1500 313.15 K 866 hPa): 5.167 mole fraction x10^5
solubility 10^5x1^exp (water+[TEA]La w3=0.2000 298.15 K 866 hPa): 4.309 mole fraction x10^5
solubility 10^5x1^exp (water+[TEA]La w3=0.2000 303.15 K 866 hPa): 4.778 mole fraction x10^5
solubility 10^5x1^exp (water+[TEA]La w3=0.2000 308.15 K 866 hPa): 5.362 mole fraction x10^5
solubility 10^5x1^exp (water+[TEA]La w3=0.2000 313.15 K 866 hPa): 5.751 mole fraction x10^5
Compound: CC(=O)Nc1ccc(O)cc1 [ACP, Acetaminophen]
